Converted amounts (≈) assume the structure as drawn.
Assays:
Type in all cases: functional
Aspergillus fumigatus = test: Antifungal activity against Aspergillus fumigatus CGMCC 3.7795 measured at 72 hrs by CLSI protocol based microbroth dilution method; conditions: CGMCC 3.7795, 72 h
[Candida] zeylanoides = Antifungal activity against Candida zeylanoides CGMCC2.3739 measured at 24 hrs by CLSI protocol based microbroth dilution method; conditions: Dujonia zeylanoides, CGMCC2.3739, 24 h
Candida albicans [1] = test: Antifungal activity against Candida albicans CPCC400616 measured at 24 hrs by CLSI protocol based microbroth dilution method; conditions: CPCC400616, 24 h
Cryptococcus neoformans = test: Antifungal activity against Cryptococcus neoformans CGMCC2.3161 measured at 72 hrs by CLSI protocol based microbroth dilution method; conditions: CGMCC2.3161, 72 h
Candida albicans [2] = test: Antifungal activity against Candida albicans SC5314 incubated for 24 hrs by CLSI protocol based microbroth dilution method; conditions: SC5314, 24 h
Candida albicans [3] = test: Antifungal activity against fluconazole-resistant Candida albicans isolate 100 incubated for 24 hrs by CLSI protocol based microbroth dilution method; conditions: isolate 100, 24 h
Candida albicans [4] = test: Antifungal activity against fluconazole-resistant Candida albicans isolate 17 incubated for 24 hrs by CLSI protocol based microbroth dilution method; conditions: isolate 17, 24 h
Candida albicans [5] = test: Antifungal activity against fluconazole-resistant Candida albicans isolate 103 incubated for 24 hrs by CLSI protocol based microbroth dilution method; conditions: isolate 103, 24 h
Candida albicans [6] = test: Antifungal activity against fluconazole-resistant Candida albicans CaR incubated for 24 hrs by CLSI protocol based microbroth dilution method

SMILES	MIC90 (Aspergillus fumigatus) [µg/mL]	MIC90 ([Candida] zeylanoides) [µg/mL]	MIC90 (Candida albicans [1]) [µg/mL]	MIC90 (Cryptococcus neoformans) [µg/mL]	MIC90 (Candida albicans [2]) [µg/mL]	MIC90 (Candida albicans [3]) [µg/mL]	MIC90 (Candida albicans [4]) [µg/mL]	MIC90 (Candida albicans [5]) [µg/mL]	MIC90 (Candida albicans [6]) [µg/mL]
NNC(=S)NN	> 128	64 (≈ 603 µM)	32 (≈ 301 µM)	64 (≈ 603 µM)	64 (≈ 603 µM)	–	–	–	–
Cc1ccc2c(c1)/C(=N/NC(=S)Nc1ccccc1)CC[Se]2	> 128	> 128	64 (≈ 171 µM)	16 (≈ 42.7 µM)	64 (≈ 171 µM)	–	–	–	–
Cc1ccc2c(c1)/C(=N/NC(=S)NN)CC[Se]2	> 128	> 128	8 (≈ 25.5 µM)	4 (≈ 12.8 µM)	8 (≈ 25.5 µM)	–	–	–	–
CCc1ccccc1NC(=O)N/N=C1\CC[Se]c2ccc(C)cc21	> 128	16 (≈ 41.4 µM)	64 (≈ 166 µM)	4 (≈ 10.4 µM)	64 (≈ 166 µM)	–	–	–	–
COc1cccc(NC(=S)N/N=C2\CC[Se]c3ccc(C)cc32)c1	> 128	> 128	64 (≈ 158 µM)	32 (≈ 79.1 µM)	64 (≈ 158 µM)	–	–	–	–
Cc1ccc2c(c1)/C(=N/NC(=O)Nc1cccc(Br)c1)CC[Se]2	> 128	> 128	> 128	> 128	> 128	–	–	–	–
O=C1CC[Se]c2ccc(F)cc21	> 128	> 128	16 (≈ 69.8 µM)	> 128	4 (≈ 17.5 µM)	–	–	–	–
COc1ccc(OC)c(NC(=S)N/N=C2\CC[Se]c3ccc(F)cc32)c1	64 (≈ 146 µM)	4 (≈ 9.12 µM)	8 (≈ 18.2 µM)	4 (≈ 9.12 µM)	2 (≈ 4.56 µM)	2 (≈ 4.56 µM)	2 (≈ 4.56 µM)	4 (≈ 9.12 µM)	4 (≈ 9.12 µM)
COc1ccc(OC)c(NC(=S)N/N=C2\CC[Se]c3ccccc32)c1	> 128	32 (≈ 76.1 µM)	8 (≈ 19 µM)	2 (≈ 4.76 µM)	4 (≈ 9.51 µM)	–	–	–	–
Cc1ccc(NC(=S)N/N=C2\CC[Se]c3ccc(F)cc32)cc1	> 128	16 (≈ 40.8 µM)	8 (≈ 20.4 µM)	2 (≈ 5.1 µM)	32 (≈ 81.6 µM)	–	–	–	–
CCc1ccccc1NC(=O)NN	> 128	64 (≈ 357 µM)	64 (≈ 357 µM)	32 (≈ 179 µM)	32 (≈ 179 µM)	–	–	–	–
Cc1ccc(C)c(NC(=O)N/N=C2\CC[Se]c3ccc(F)cc32)c1	> 128	> 128	8 (≈ 20.5 µM)	> 128	4 (≈ 10.2 µM)	–	–	–	–
Cc1ccc(C)c(NC(=O)N/N=C2\CC[Se]c3ccc(C)cc32)c1	> 128	> 128	64 (≈ 166 µM)	64 (≈ 166 µM)	64 (≈ 166 µM)	–	–	–	–
O=C(N/N=C1\CC[Se]c2ccc(F)cc21)Nc1cc(Cl)cc(Cl)c1	> 128	> 128	> 128	> 128	> 128	–	–	–	–
O=C1CC[Se]c2ccccc21	> 128	> 128	64 (≈ 303 µM)	8 (≈ 37.9 µM)	4 (≈ 18.9 µM)	–	–	–	–
CCOc1ccc(NC(=O)N/N=C2\CC[Se]c3ccc(C)cc32)cc1	> 128	> 128	64 (≈ 159 µM)	32 (≈ 79.5 µM)	8 (≈ 19.9 µM)	–	–	–	–
Cc1ccc(C)c(NC(=S)N/N=C2\CC[Se]c3ccc(F)cc32)c1	> 128	> 128	8 (≈ 19.7 µM)	16 (≈ 39.4 µM)	32 (≈ 78.7 µM)	–	–	–	–
O=C(N/N=C1\CC[Se]c2ccc(F)cc21)Nc1ccccc1Cl	> 128	8 (≈ 20.2 µM)	8 (≈ 20.2 µM)	16 (≈ 40.3 µM)	2 (≈ 5.04 µM)	–	–	–	–

SMILES	MIC90 (Aspergillus fumigatus) [µg/mL]	MIC90 ([Candida] zeylanoides) [µg/mL]	MIC90 (Candida albicans [1]) [µg/mL]	MIC90 (Cryptococcus neoformans) [µg/mL]	MIC90 (Candida albicans [2]) [µg/mL]	MIC90 (Candida albicans [3]) [µg/mL]	MIC90 (Candida albicans [4]) [µg/mL]	MIC90 (Candida albicans [5]) [µg/mL]	MIC90 (Candida albicans [6]) [µg/mL]
NNC(=S)Nc1ccccc1	> 128	> 128	64 (≈ 383 µM)	64 (≈ 383 µM)	> 128	–	–	–	–
Cc1ccc2c(c1)C(=O)CC[Se]2	> 128	> 128	32 (≈ 142 µM)	> 128	4 (≈ 17.8 µM)	–	–	–	–
CCc1ccccc1NC(=O)N/N=C1\CC[Se]c2ccc(F)cc21	> 128	> 128	8 (≈ 20.5 µM)	> 128	8 (≈ 20.5 µM)	–	–	–	–
Fc1ccc2c(c1)/C(=N/NC(=S)Nc1ccccc1)CC[Se]2	> 128	8 (≈ 21.1 µM)	0.25 (≈ 0.661 µM)	2 (≈ 5.29 µM)	2 (≈ 5.29 µM)	0.5 (≈ 1.32 µM)	2 (≈ 5.29 µM)	0.5 (≈ 1.32 µM)	2 (≈ 5.29 µM)
S=C(N/N=C1\CC[Se]c2ccccc21)Nc1ccccc1	> 128	1 (≈ 2.78 µM)	0.5 (≈ 1.39 µM)	8 (≈ 22.2 µM)	4 (≈ 11.1 µM)	32 (≈ 88.8 µM)	4 (≈ 11.1 µM)	> 128	64 (≈ 178 µM)
Cc1ccc(C)c(NC(=S)N/N=C2\CC[Se]c3ccccc32)c1	> 128	128 (≈ 330 µM)	16 (≈ 41.2 µM)	16 (≈ 41.2 µM)	8 (≈ 20.6 µM)	–	–	–	–
Cc1ccc2c(c1)/C(=N/NC(=O)Nc1ccccc1)CC[Se]2	> 128	16 (≈ 44.7 µM)	64 (≈ 179 µM)	8 (≈ 22.3 µM)	4 (≈ 11.2 µM)	–	–	–	–
Cc1ccc(NC(=S)N/N=C2\CC[Se]c3ccccc32)cc1	> 128	128 (≈ 342 µM)	8 (≈ 21.4 µM)	8 (≈ 21.4 µM)	64 (≈ 171 µM)	–	–	–	–
CCc1ccccc1NC(=O)N/N=C1\CC[Se]c2ccccc21	> 128	> 128	> 128	> 128	> 128	–	–	–	–
O=C(N/N=C1\CC[Se]c2ccc(F)cc21)Nc1cccc(Br)c1	> 128	> 128	16 (≈ 36.3 µM)	16 (≈ 36.3 µM)	64 (≈ 145 µM)	–	–	–	–
Cc1ccc2c(c1)/C(=N/NC(=O)Nc1ccccc1Cl)CC[Se]2	> 128	> 128	64 (≈ 163 µM)	64 (≈ 163 µM)	32 (≈ 81.5 µM)	–	–	–	–
Cc1ccc(NC(=S)N/N=C2\CC[Se]c3ccc(C)cc32)cc1	> 128	8 (≈ 20.6 µM)	64 (≈ 165 µM)	32 (≈ 82.4 µM)	16 (≈ 41.2 µM)	–	–	–	–
Cc1ccc(C)c(NC(=S)N/N=C2\CC[Se]c3ccc(C)cc32)c1	> 128	128 (≈ 318 µM)	2 (≈ 4.97 µM)	16 (≈ 39.8 µM)	2 (≈ 4.97 µM)	–	–	–	–
CCOc1ccc(NC(=O)N/N=C2\CC[Se]c3ccc(F)cc32)cc1	> 128	16 (≈ 39.4 µM)	8 (≈ 19.7 µM)	32 (≈ 78.8 µM)	4 (≈ 9.84 µM)	–	–	–	–
COc1ccc(OC)c(NC(=S)N/N=C2\CC[Se]c3ccc(C)cc32)c1	> 128	128 (≈ 295 µM)	64 (≈ 147 µM)	32 (≈ 73.7 µM)	32 (≈ 73.7 µM)	–	–	–	–
Cc1ccc2c(c1)/C(=N/NC(=O)Nc1cc(Cl)cc(Cl)c1)CC[Se]2	> 128	> 128	> 128	> 128	> 128	–	–	–	–
COc1cccc(NC(=S)N/N=C2\CC[Se]c3ccccc32)c1	> 128	2 (≈ 5.12 µM)	16 (≈ 41 µM)	4 (≈ 10.2 µM)	16 (≈ 41 µM)	–	–	–	–
COc1cccc(NC(=S)N/N=C2\CC[Se]c3ccc(F)cc32)c1	> 128	2 (≈ 4.9 µM)	8 (≈ 19.6 µM)	1 (≈ 2.45 µM)	16 (≈ 39.2 µM)	–	–	–	–

— ChEMBL document CHEMBL4406865, “Design, synthesis and biological evaluation of novel semicarbazone-selenochroman-4-ones hybrids as potent antifungal agents” (2019)
